A melting point compilation (Tetko et al.; mined from patent text by program, amines drawn as free bases though some values may be those of a salt)

melting point [°C]	Structure (SMILES)
87 to 88	CCOC(=O)C(CC=Cc1ccc(Cl)cc1)S(=O)(=O)c1ccc(C)cc1 (stereo unspecified)
131 to 132	Oc1c(Cl)cc(Cl)cc1CNc1cnsn1
165 to 167	COc1ccc(N2C(=O)Cc3ccccc32)cc1Cl
100	CCNc1cncc(C(=NCCO[N+](=O)[O-])NC#N)c1
105	O=C(NC/C=C/c1ccccc1)c1ccc(Cl)c(Cl)c1
149 to 151	C/C(=C\c1ccc(OCC(=O)O)cc1)[N+](=O)[O-]
193	CCOc1cc(C2CC=CN(C(=O)c3ccc(NC(=O)OCCCN(C)C)cc3)N2)ccc1OC (stereo unspecified)
79.2	CCc1cccc(-c2nc(C3CCCCC3)n(C)n2)n1
69 to 70	COc1cc(C=O)cc(OC)c1OCCO
49 to 51	Cc1nn(-c2cc(Oc3ccc(OC(C)C(=O)O)cn3)c(Cl)cc2F)c(=O)n1C(F)F (stereo unspecified)
172 to 174	Nc1cc(=O)n(CCC2=CCCCC2)c(=O)n1CCC1=CCCCC1
268 to 269	Cc1[nH]n(C2CCCO2)c2nc(-c3ccncc3)nc(=O)c1-2 (stereo unspecified)
191 to 193	Cc1nc(NC(=O)c2ccccc2)sc1C(=O)NCc1ccccc1Cl
152 to 154	COc1c(Cl)ccc(-c2cc(N)c(OC(F)F)c(Cl)n2)c1F
29	CCCCCCCCCCCCCCCCCCSCC(CO)C(C)C (stereo unspecified)
141 to 143	Cc1ccccc1C(Nc1ccncc1)c1ccccc1 (stereo unspecified)
82.4 to 83	COC(=O)CC(C(=O)c1ccc(SC)cc1)c1ccccc1 (stereo unspecified)

melting point [°C]	Structure (SMILES)
137 to 138	Cc1ccc(Cc2cnc(CCCOc3cccc(CN4CCCCC4)c3)[nH]c2=O)cn1
109 to 114	CC(C)(C)NC(=O)[C@@H]1CCCN1C(=O)[C@@H](O)[C@H](Cc1ccccc1)NC(=O)[C@H](CC(N)=O)NC(=O)COC1CCC(NC(=O)OCc2ccccc2)CC1 (stereo partly specified)
83 to 85	COC(=O)[C@H](Cc1ccc(-c2ccccc2)cc1)NC(=O)OC(C)(C)C
140	COC(=O)CC1Oc2ccccc2NC1=O (stereo unspecified)
131 to 135	N#Cc1c(OCC2CO2)cccc1[N+](=O)[O-] (stereo unspecified)
105 to 109	CCOC(=O)C=Cc1ccc(NC(=O)OC(C)(C)C)cc1
88 to 91	CCOC(=O)C(C)=Cc1ccc2cc[nH]c2c1
112 to 114	COc1ccc2c(c1)/C(=C/C#N)C(c1ccccc1)C2 (stereo unspecified)
141 to 145	CC(=O)C1=C(C)NC(C)=C(C(=O)CCCCCCCN2CCC(c3ccccc3)(c3ccccc3)CC2)C1c1cccc([N+](=O)[O-])c1 (stereo unspecified)
178 to 181	O=C(Nc1cccc(C(F)(F)F)c1)c1cccc2cc(Oc3cc(CCl)ncn3)ccc12
80	CC(C)(C)CC(C)(C)c1ccc(Nc2ccc(Cc3ccc(Nc4ccc(C(C)(C)CC(C)(C)C)cc4)c4ccccc34)c3ccccc23)cc1
134 to 138	CC(CCCCCOCCc1ccccc1)NCC(O)c1ccc(O)c2[nH]c(=O)ccc12 (stereo unspecified)
158 to 160	C=CC[C@H]1C(=O)N(S(=O)(=O)c2ccc3ccccc3c2)[C@H]2CCN(C(=O)OCc3ccccc3)[C@H]12 (relative stereo)
226 to 228	Cc1nc(Sc2ccc(C(=O)O)cn2)sc1CC(=O)O
129 to 132	CCc1nn(C2CCCC2)c2cc(C(=O)Nc3ccc(C(=O)OC)cc3)ccc12
154 to 156	Cc1cc(-c2ccc(S(C)(=O)=O)cc2)n(-c2ccc(-c3ccoc3)cc2)c1
137	Cc1c(N)cccc1OC1CCN(C(=O)OC(C)(C)C)C1 (stereo unspecified)

Second part, the molecule before the results:

Structure (SMILES)	melting point [°C]
CS(=O)(=O)N(c1ccc(C#CCCN2CC=C(c3ccccc3)CC2)nc1)S(C)(=O)=O	168 to 170
CCCC12C3=CCC4CC(OC(C)=O)CCC4(C)C3CCC1(C)C(C(C)CCCC(C)C)CC2O (stereo unspecified)	104
CONC(=O)Nc1ccc(-c2sc3c(c2CNC(C)c2ccccc2)c(=O)n(C2CCC(O)CC2)c(=O)n3Cc2c(F)cccc2F)cc1 (stereo unspecified)	137 to 138
CCC(=O)Nc1cccc2c1C1(COc3cc4c(cc31)OCCO4)C(=O)N2C (stereo unspecified)	224 to 226
Cc1cn(-c2cc(NC(=O)c3cccc4cc(Oc5ccnc(N)c5)ccc34)cc(C(F)(F)F)c2)cn1	236 to 239
Cc1ccc(C(F)(F)c2ccc(C3CCCN4CCS(=O)(=O)N=C34)cc2)cc1 (stereo unspecified)	190 to 191
Cc1ccc(S(=O)(=O)N(C(N)=O)c2cccc(Br)n2)cc1	> 310
Cc1ccc(NC2=C(C(=O)Nc3ccccc3)C(=O)OC2)cc1	181 to 183
CCN(CC)CCOc1ccc(Nc2ncc3c(n2)N(C)C(=O)N(c2ccccc2C)C3)cc1	132
CC(Oc1ccc(F)cc1F)(C(=O)Nc1nccs1)c1ccc(S(C)(=O)=O)cc1 (stereo unspecified)	89 to 90
CCCCCCCCCC(=O)Nc1ccc2c(c1)C(=O)N(CCN1CCC(c3noc4cc(F)ccc34)CC1)C2=O	159 to 160
O=[N+]([O-])c1ccc(Cn2c(CO)nc3ccccc32)cc1	162 to 165
N#Cc1c(N2CCN(C(=O)c3cnccn3)CC2)c2ccccc2n(Cc2ccc(F)cc2)c1=O	145 to 156
COc1cc(NC2CCN(S(=O)(=O)c3ccccc3)CC2)ccc1C(N)=O	166 to 168
CCCOC1CCC(=O)N1 (stereo unspecified)	52 to 54
c1ccc(Nc2ccc(-c3ccc(N(c4ccccc4)c4ccc(-c5ccccc5)cc4)cc3)cc2)cc1	127
COc1ccc(CCN(C)CCCC(C)(C(=O)OC(C)C)c2ccc(OC)c(OC)c2)cc1OC (stereo unspecified)	85 to 87
CC(C)(C)OC(=O)COc1ccc(NC(=O)NC(=O)c2ccc(C#N)nc2)cc1	220 to 222
C#CCNc1ccc(C(C)=O)cc1	97 to 100
CCCCc1nc2c(N)nc3ccccc3c2n1CCCNC(=O)N1CCOCC1	193 to 195
CCOC(=O)C(=O)Nc1nc(C)c(C)s1	86 to 88

Structure (SMILES)	melting point [°C]
CN1CCC(OC(=O)COC(=O)c2ccccc2Nc2ccnc3c(C(F)(F)F)cccc23)(c2ccccc2)CC1	144 to 145
Cc1cc(NC(=O)NC(=O)c2c(Cl)cccc2Cl)cnc1-c1ccccc1	202 to 205
COc1ccc(CN2C(=O)C(CCO)Oc3ccccc32)cc1 (stereo unspecified)	80 to 82
O=Cc1cn(Cc2ccc(OCc3ccccc3)cc2)cc1-c1ccccc1	100 to 101
O=[N+]([O-])c1ccc(-c2nc[nH]c2-c2ccc([N+](=O)[O-])cc2)cc1	294
CCOC(=O)C1=C(C)NC(C=O)=C(C(=O)OCC)C1c1cccc([N+](=O)[O-])c1 (stereo unspecified)	130 to 133
CC(=O)CCc1nc2c(N)nc3ccccc3c2n1CC(C)C	172 to 174
CN1C2=C(CSC2)C(=O)Nc2ccccc21	196 to 198
CC#CC(O)(C#CC)C1(Cl)CC(c2ccccc2)=CC=C1N (stereo unspecified)	112 to 114
CNc1nc(-n2cc(C(=O)O)c(=O)c3cc(F)c(F)c(Cl)c32)c(F)cc1F	236 to 242
CN(C)CCn1c(=O)c2cc(N)ccc2c2cnc3cc4c(cc3c21)OCO4	245 to 246
Cn1cc(C(O)c2cccc(Cl)c2)cc1C(=O)O (stereo unspecified)	180
CNC(=O)[C@@H]1CCCC[C@@H]1Nc1nc(Cl)ncc1Cl (relative stereo)	108
COc1ccc(C#Cc2cccc(C(C)N(O)C(N)=O)c2)cc1 (stereo unspecified)	141 to 142
CCCCS(=O)c1ccc(-n2[nH]c3ccccc3c2=O)cc1 (stereo unspecified)	168 to 169
COC(=O)c1cc(Br)c2c(c1Cl)OC(c1ccccc1)(c1ccccc1)O2	137 to 138
CC(=O)OC1C(=O)N(c2nnc(C(C)(C)C)s2)C(=O)N1C (stereo unspecified)	168
Cc1nc2cc3c(cc2s1)C1(CO3)C(=O)Nc2ccccc21 (stereo unspecified)	> 250
CN1CCC(Nc2nc3ccccc3n2Cc2ccccc2)CC1	94 to 102
CCCCOc1ccc(S(=O)(=O)NC(=NO)Nc2ccc(Cl)cc2)cc1	175 to 176
O=S(c1ccc2c(c1)C(=C1CCN(CC3CC3)CC1)c1ccccc1C=C2)C(F)(F)F (stereo unspecified)	146 to 148

Structure (SMILES)	melting point [°C]
O=C1N(c2ccccc2Br)Cc2cnc(Nc3ccccc3)nc2N1c1cccc2ccccc12	120 to 125
COc1ccc(C2=CNC(=O)NC2)cc1OC1Cc2ccccc2C1	198 to 201
COc1ccc(-n2cnc3cc(N)ccc32)cc1	44 to 45
CC1(CN=[N+]=[N-])SC2C(NC(=O)Cc3ccccc3)C(=O)N2C1C(=O)OCC(Cl)(Cl)Cl (stereo unspecified)	105 to 106
CS(=O)(=O)c1cccc(-c2ccccc2NC(=S)NC(=O)c2ccccc2)c1	179 to 180
COc1ccc(C=O)cc1-c1nsc2ccc(-n3c(=O)cc(C(F)(F)F)n(C)c3=O)cc12	118 to 120
Cc1csc2c(=O)n(CCC(C(=O)NO)N(C)S(=O)(=O)c3ccc(Oc4ccccc4)cc3)c(=O)[nH]c12 (stereo unspecified)	170 to 171
CS(=O)(=O)c1ccc(-c2ccc(C3C(CCC(O)c4ccc(F)cc4)C(=O)N3c3ccc(F)cc3)cc2)cc1 (stereo unspecified)	111
CC1=CC(C)(N)NC=C1 (stereo unspecified)	79.5 to 81
C#CCN(c1c(Br)cc(Br)cc1Br)[N+](=O)[O-]	58 to 58.5
CC12CCCc3cc(N(CC4CC4)c4ccc(C(=O)O)cc4)cc(c31)CCC2	234 to 235
Cn1ccc(C(=O)c2ccc(Cc3ccc(F)cc3)o2)c(O)c1=O	145 to 147
CCCCCCCCCCCCCCCCNc1ccc(C(=O)NS(=O)(=O)c2ccc([N+](=O)[O-])cc2)cc1	130 to 131
COc1ccc(C=O)c(Cl)c1O	204 to 206
CC(C)c1cn2ccccc2c1S(=O)(=O)c1ccc(OCCCBr)cc1	133
O=C(OC(F)C(F)F)c1cnccn1 (stereo unspecified)	46 to 48
COC(=O)c1ccc(OCC2CN(c3ccc(Cl)cc3)C(=O)O2)cc1 (stereo unspecified)	146 to 148
CCC(CC)C(c1ccnn1-c1ccccc1)N(C)S(=O)(=O)c1ccc(Cl)cc1 (stereo unspecified)	86.5 to 89
c1ccc2c(c1)c1ccccc1c1[nH]cnc21	> 375
O=C(C=Cc1ccc(C(F)(F)F)cc1)N1CCC(O)CC1	124 to 135
